Patent US7964613B2 (Asahi Kasei Pharma Corporation, priority 2007, dated 2011)

The compounds below were run on rabbit normal intraocular pressure (assay: Intraocular pressure reducing action). Conditions: Oryctolagus cuniculus, topical; 3 mM aqueous solution, 50 μl to the left eye; max IOP reduction (2, 4, 6 hours) / value immediately before administration; read-out: intraocular pressure reducing degree.
Format: in vivo, Japanese white rabbit
Protocol: A Japanese white rabbit having a body weight of about 2 kg was placed in a positioner and naturalized for one week before the experiment. An opthalmologic local anesthesant (Benoxil) was administered to both eyes, and then intraocular pressure was measured by using a tonometer (Classic 30, Solan). A 3 mM aqueous solution of a test compound was administered in a volume of 50 μl to the left eye, and the right eye was not treated (control eye). The intraocular pressure values were measured for the left and right eyes immediately before, and 2, 4 and 6 hours after the administration of the aqueous solution of the test compound, and the difference of the measured values for the left and right eyes was considered an intraocular pressure reduction value of the test medicament at each measurement time. The largest difference of the values for the left and right eyes among the measured values at the measurement times (after 2, 4 and 6 hours) was considered the maximum intraocular pressure reduction value (max ? IOP) of each test medicament. The intraocular pressure reducing degree representing the intraocular pressure reducing action of each test medicament was calculated according to the following formula. Since rabbits show significant daily variation of intraocular pressure, daily variation is added when change of intraocular pressure is measured over time, and the intraocular pressure reducing action may be overestimated. Therefore, we used this calculation method of intraocular pressure reduction value in order to minimize the influence of the variation. Intraocular pressure reducing degree(%)=(max ? IOP/Intraocular pressure value immediately before administration)×100

CC(=O)NCCC(=O)NC1CCN(S(=O)(=O)c2cccc3cncc(Cl)c23)C1 (stereo in doubt) [Example 97, (R)-3-[(3-Acetylamino)propionyl]amino-1-(4-chloro-5-isoquinolinesulfonyl)pyrrolidine] and O=C(CCO)N[C@H]1CCN(S(=O)(=O)c2cccc3cncc(Cl)c23)C1 [Example 75, (S)-3-(3-Hydroxypropionyl)amino-1-(4-chloro-5-isoquinolinesulfonyl)pyrrolidine] fall in the same range of inhibition in vivo at 3000 µM: 10 to 20% for the first, 10 to 20% for the second.

N#Cc1cncc2cccc(S(=O)(=O)N3CC[C@H](N)C3)c12 [Example 13-1, (S)-3-Amino-1-(4-cyano-5-isoquinolinesulfonyl)pyrrolidine] and N[C@H]1CCN(S(=O)(=O)c2cccc3cncc(-c4cnoc4)c23)C1 [Example 24-1, (S)-3-Amino-1-[4-(4-isoxazolyl)-5-isoquinolinesulfonyl]pyrrolidine] fall in the same range of inhibition in vivo at 3000 µM: 5 to 10% for the first, 5 to 10% for the second.

CC(=O)N[C@H]1CCN(S(=O)(=O)c2cccc3cncc(Cl)c23)C1 [Example 49-1, (S)-3-(Acetylamino)-1-(4-chloro-5-isoquinolinesulfonyl)pyrrolidine] and O=C(CO)N[C@H]1CCN(S(=O)(=O)c2cccc3cncc(Cl)c23)C1 [Example 74, (S)-3-(2-Hydroxyacetyl)amino-1-(4-chloro-5-isoquinolinesulfonyl)pyrrolidine] fall in the same range of inhibition in vivo at 3000 µM: 10 to 20% for the first, 10 to 20% for the second.

O=S(=O)(c1cccc2cncc(Cl)c12)N1CC[C@H](NC2CCOC2)C1 (stereo partly drawn) [Example 59-1, (3S)-3-(3-Tetrahydrofuranyl)amino-1-(4-chloro-5-isoquinolinesulfonyl)pyrrolidine] and COCCC(=O)N[C@H]1CCN(S(=O)(=O)c2cccc3cncc(Cl)c23)C1 [Example 77, (S)-3-(3-Methoxypropionyl)amino-1-(4-chloro-5-isoquinolinesulfonyl)pyrrolidine] cannot be ordered by inhibition in vivo at 3000 µM: 10 to 20% for the first, ≥ 20% for the second.

NCC1CCCCN1S(=O)(=O)c1cccc2cncc(Cl)c12 (stereo not shown) [Example 61, 2-(Aminomethyl)-1-(4-chloro-5-isoquinolinesulfonyl)piperidine] and COCC(=O)N(C)[C@H]1CCN(S(=O)(=O)c2cccc3cncc(Cl)c23)C1 [Example 67-1, (S)-3-[N-(2-Methoxyacetyl)-N-methyl]amino-1-(4-chloro-5-isoquinolinesulfonyl)pyrrolidine] fall in the same range of inhibition in vivo at 3000 µM: 10 to 20% for the first, 10 to 20% for the second.

First: CN(C)CC(=O)N(C)[C@H]1CCN(S(=O)(=O)c2cccc3cncc(Cl)c23)C1 [Example 66-1, (S)-3-[N-(2-Dimethylamino)acetyl-N-methyl]amino-1-(4-chloro-5-isoquinolinesulfonyl)pyrrolidine]
Second: Cc1cncc2cccc(S(=O)(=O)N3CC[C@H](NC(=O)CN(C)C)C3)c12 [Example 72, (S)-3-[2-(Dimethylamino)acetyl]amino-1-(4-methyl-5-isoquinolinesulfonyl)pyrrolidine]
The inhibition in vivo at 3000 µM of the first is lower: 5 to 10% for the first, 10 to 20% for the second.

First: COCC(=O)N[C@H]1CCN(S(=O)(=O)c2cccc3c(O)ncc(Cl)c23)C1 [Example 68-1, (S)-3-(2-Methoxyacetyl)amino-1-(1-hydroxy-4-chloro-5-isoquinolinesulfonyl)pyrrolidine]
Second: COCC(=O)N[C@H]1CCN(S(=O)(=O)c2cccc3cncc(C)c23)C1 [Example 70, (S)-3-(2-Methoxyacetyl)amino-1-(4-methyl-5-isoquinolinesulfonyl)pyrrolidine]
The inhibition in vivo at 3000 µM of the first is lower: 5 to 10% for the first, ≥ 20% for the second.

CN(C)CC(=O)N[C@H]1CCN(S(=O)(=O)c2cccc3cncc(Br)c23)C1 [Example 73, (S)-3-[(2-Dimethylamino)acetyl]amino-1-(4-bromo-5-isoquinolinesulfonyl)pyrrolidine] and O=C(CCOc1ccccc1)N[C@H]1CCN(S(=O)(=O)c2cccc3cncc(Cl)c23)C1 [Example 76, (S)-3-(3-Phenoxypropionyl)amino-1-(4-chloro-5-isoquinolinesulfonyl)pyrrolidine] fall in the same range of inhibition in vivo at 3000 µM: 10 to 20% for the first, 10 to 20% for the second.
